System: 233499-124-R-J3-PDC complex spheroid growth
Test: Anticancer human tumor 233499-124-R-J3-PDC patient-derived colon adenocarcinoma cell line growth inhibition [AhR]
Settings: for IC50: curve of first compound; for viability, T/C: stronger effect = lower value
How it was run: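 Spheroids combined tumor cells with HUVEC endothelial cells and human MSCs as stroma. AhR antagonists were paired with standard or investigational drugs, each dosed in half-log steps down from near clinical Cmax, or from 10 microM where Cmax was unknown.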

[1] = second compound 0.1 µM, first compound 0.0316 µM
[2] = second compound 0.1 µM, first compound 0.1 µM
[3] = second compound 0.1 µM, first compound 0.316 µM
[4] = second compound 0.1 µM, first compound 1 µM
[5] = second compound 0.1 µM, first compound 3.16 µM
[6] = second compound 0.1 µM, first compound 10 µM
[7] = second compound 0.316 µM, first compound 0.0316 µM
[8] = second compound 0.316 µM, first compound 0.1 µM
[9] = second compound 0.316 µM, first compound 0.316 µM
[10] = second compound 0.316 µM, first compound 1 µM
[11] = second compound 0.316 µM, first compound 3.16 µM
[12] = second compound 0.316 µM, first compound 10 µM
[13] = second compound 1 µM, first compound 0.0316 µM
[14] = second compound 1 µM, first compound 0.1 µM
[15] = second compound 1 µM, first compound 0.316 µM
[16] = second compound 1 µM, first compound 1 µM
[17] = second compound 1 µM, first compound 3.16 µM
[18] = second compound 1 µM, first compound 10 µM
[19] = second compound 3.16 µM, first compound 0.0316 µM
[20] = second compound 3.16 µM, first compound 0.1 µM
[21] = second compound 3.16 µM, first compound 0.316 µM
[22] = second compound 3.16 µM, first compound 1 µM
[23] = second compound 3.16 µM, first compound 3.16 µM
[24] = second compound 3.16 µM, first compound 10 µM
[25] = second compound 10 µM, first compound 0.0316 µM
[26] = second compound 10 µM, first compound 0.1 µM
[27] = second compound 10 µM, first compound 0.316 µM
[28] = second compound 10 µM, first compound 1 µM
[29] = second compound 10 µM, first compound 3.16 µM
[30] = second compound 10 µM, first compound 10 µM
[31] = second compound 0.1 µM, first compound 0.00949 µM
[32] = second compound 0.1 µM, first compound 0.03 µM
[33] = second compound 0.1 µM, first compound 0.0949 µM
[34] = second compound 0.1 µM, first compound 0.3 µM
[35] = second compound 0.316 µM, first compound 0.00949 µM
[36] = second compound 0.316 µM, first compound 0.03 µM
[37] = second compound 0.316 µM, first compound 0.0949 µM
[38] = second compound 0.316 µM, first compound 0.3 µM
[39] = second compound 1 µM, first compound 0.00949 µM
[40] = second compound 1 µM, first compound 0.03 µM
[41] = second compound 1 µM, first compound 0.0949 µM
[42] = second compound 1 µM, first compound 0.3 µM
[43] = second compound 3.16 µM, first compound 0.00949 µM
[44] = second compound 3.16 µM, first compound 0.03 µM
[45] = second compound 3.16 µM, first compound 0.0949 µM
[46] = second compound 3.16 µM, first compound 0.3 µM
[47] = second compound 10 µM, first compound 0.00949 µM
[48] = second compound 10 µM, first compound 0.03 µM
[49] = second compound 10 µM, first compound 0.0949 µM
[50] = second compound 10 µM, first compound 0.3 µM
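Also: spheroids exposed to agents for seven days before reading.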

SMILES: CC1(C)CCC(CN2CCN(c3ccc(C(=O)NS(=O)(=O)c4ccc(NCC5CCOCC5)c([N+](=O)[O-])c4)c(Oc4cnc5[nH]ccc5c4)c3)CC2)=C(c2ccc(Cl)cc2)C1 + Cc1ccccc1N=Nc1ccc(NC(=O)c2ccnn2C)c(C)c1
- IC50 (second compound 0.1 µM): > 10000 nM
- IC50 (second compound 0.316 µM): 8700 nM
- IC50 (second compound 1 µM): 9240 nM
- IC50 (second compound 3.16 µM): 7490 nM
- IC50 (second compound 10 µM): 7210 nM
- viability, T/C [1]: 94.8%
- viability, T/C [2]: 116%
- viability, T/C [3]: 102%
- viability, T/C [4]: 108%
- viability, T/C [5]: 117%
- viability, T/C [6]: 51.5%
- viability, T/C [7]: 111%
- viability, T/C [8]: 110%
- viability, T/C [9]: 97%
- viability, T/C [10]: 112%
- viability, T/C [11]: 118%
- viability, T/C [12]: 41.8%
- viability, T/C [13]: 104%
- viability, T/C [14]: 106%
- viability, T/C [15]: 97.6%
- viability, T/C [16]: 122%
- viability, T/C [17]: 122%
- viability, T/C [18]: 45.5%
- viability, T/C [19]: 102%
- viability, T/C [20]: 97.7%
- viability, T/C [21]: 104%
- viability, T/C [22]: 99.4%
- viability, T/C [23]: 113%
- viability, T/C [24]: 32.2%
- viability, T/C [25]: 121%
- viability, T/C [26]: 99.3%
- viability, T/C [27]: 112%
- viability, T/C [28]: 107%
- viability, T/C [29]: 109%
- viability, T/C [30]: 26.6%

SMILES: CCN(c1cc(-c2ccc(CN3CCOCC3)cc2)cc(C(=O)NCc2c(C)cc(C)[nH]c2=O)c1C)C1CCOCC1 + Cc1ccccc1N=Nc1ccc(NC(=O)c2ccnn2C)c(C)c1
- IC50 (second compound 0.1 µM): > 3000 nM
- IC50 (second compound 0.316 µM): > 3000 nM
- IC50 (second compound 1 µM): > 3000 nM
- IC50 (second compound 3.16 µM): > 3000 nM
- IC50 (second compound 10 µM): > 3000 nM
- viability, T/C [31]: 99.3%
- viability, T/C [32]: 98%
- viability, T/C [33]: 95.1%
- viability, T/C [34]: 97.1%
- viability, T/C (second compound 0.1 µM, first compound 0.949 µM): 97.2%
- viability, T/C (second compound 0.1 µM, first compound 3 µM): 102%
- viability, T/C [35]: 88%
- viability, T/C [36]: 95.8%
- viability, T/C [37]: 100%
- viability, T/C [38]: 95.3%
- viability, T/C (second compound 0.316 µM, first compound 0.949 µM): 98.3%
- viability, T/C (second compound 0.316 µM, first compound 3 µM): 96.6%
- viability, T/C [39]: 107%
- viability, T/C [40]: 97.6%
- viability, T/C [41]: 104%
- viability, T/C [42]: 93.1%
- viability, T/C (second compound 1 µM, first compound 0.949 µM): 92.3%
- viability, T/C (second compound 1 µM, first compound 3 µM): 100%
- viability, T/C [43]: 95.1%
- viability, T/C [44]: 93.9%
- viability, T/C [45]: 105%
- viability, T/C [46]: 91.7%
- viability, T/C (second compound 3.16 µM, first compound 0.949 µM): 92.6%
- viability, T/C (second compound 3.16 µM, first compound 3 µM): 93.7%
- viability, T/C [47]: 101%
- viability, T/C [48]: 96.1%
- viability, T/C [49]: 91.8%
- viability, T/C [50]: 92.7%
- viability, T/C (second compound 10 µM, first compound 0.949 µM): 93.9%
- viability, T/C (second compound 10 µM, first compound 3 µM): 99.5%

SMILES: Cn1ncnc1C1c2n[nH]c(=O)c3cc(F)cc(c23)NC1c1ccc(F)cc1 (stereo not given) + Cc1ccccc1N=Nc1ccc(NC(=O)c2ccnn2C)c(C)c1
- IC50 (second compound 0.1 µM): > 100 nM
- IC50 (second compound 0.316 µM): > 100 nM
- IC50 (second compound 1 µM): > 100 nM
- IC50 (second compound 3.16 µM): > 100 nM
- IC50 (second compound 10 µM): > 100 nM
- viability, T/C (second compound 0.1 µM, first compound 0.000316 µM): 104%
- viability, T/C (second compound 0.1 µM, first compound 0.001 µM): 107%
- viability, T/C (second compound 0.1 µM, first compound 0.00316 µM): 110%
- viability, T/C (second compound 0.1 µM, first compound 0.01 µM): 110%
- viability, T/C [1]: 99.2%
- viability, T/C [2]: 106%
- viability, T/C (second compound 0.316 µM, first compound 0.000316 µM): 93%
- viability, T/C (second compound 0.316 µM, first compound 0.001 µM): 105%
- viability, T/C (second compound 0.316 µM, first compound 0.00316 µM): 106%
- viability, T/C (second compound 0.316 µM, first compound 0.01 µM): 101%
- viability, T/C [7]: 95.8%
- viability, T/C [8]: 94.7%
- viability, T/C (second compound 1 µM, first compound 0.000316 µM): 108%
- viability, T/C (second compound 1 µM, first compound 0.001 µM): 113%
- viability, T/C (second compound 1 µM, first compound 0.00316 µM): 103%
- viability, T/C (second compound 1 µM, first compound 0.01 µM): 101%
- viability, T/C [13]: 99%
- viability, T/C [14]: 109%
- viability, T/C (second compound 3.16 µM, first compound 0.000316 µM): 95.6%
- viability, T/C (second compound 3.16 µM, first compound 0.001 µM): 102%
- viability, T/C (second compound 3.16 µM, first compound 0.00316 µM): 90.3%
- viability, T/C (second compound 3.16 µM, first compound 0.01 µM): 97.2%
- viability, T/C [19]: 94.9%
- viability, T/C [20]: 99.2%
- viability, T/C (second compound 10 µM, first compound 0.000316 µM): 109%
- viability, T/C (second compound 10 µM, first compound 0.001 µM): 110%
- viability, T/C (second compound 10 µM, first compound 0.00316 µM): 109%
- viability, T/C (second compound 10 µM, first compound 0.01 µM): 98.7%
- viability, T/C [25]: 89.8%
- viability, T/C [26]: 98.9%

SMILES: NS(=O)(=O)OCC1CC(n2ccc3c(NC4CCc5ccccc54)ncnc32)CC1O (stereo not given) + Cc1ccccc1N=Nc1ccc(NC(=O)c2ccnn2C)c(C)c1
- IC50 (second compound 0.1 µM): 409 nM
- IC50 (second compound 0.316 µM): 442 nM
- IC50 (second compound 1 µM): 395 nM
- IC50 (second compound 3.16 µM): 475 nM
- IC50 (second compound 10 µM): 637 nM
- viability, T/C [1]: 110%
- viability, T/C [2]: 113%
- viability, T/C [3]: 61.3%
- viability, T/C [4]: 10.8%
- viability, T/C [5]: 2.55%
- viability, T/C [6]: 3.77%
- viability, T/C [7]: 125%
- viability, T/C [8]: 96.6%
- viability, T/C [9]: 68.1%
- viability, T/C [10]: 16.6%
- viability, T/C [11]: 3.6%
- viability, T/C [12]: 2.37%
- viability, T/C [13]: 116%
- viability, T/C [14]: 103%
- viability, T/C [15]: 58.2%
- viability, T/C [16]: 15.8%
- viability, T/C [17]: 3.88%
- viability, T/C [18]: 3.13%
- viability, T/C [19]: 115%
- viability, T/C [20]: 97.5%
- viability, T/C [21]: 70.8%
- viability, T/C [22]: 14.6%
- viability, T/C [23]: 2.81%
- viability, T/C [24]: 3.25%
- viability, T/C [25]: 109%
- viability, T/C [26]: 108%
- viability, T/C [27]: 83.6%
- viability, T/C [28]: 28.6%
- viability, T/C [29]: 4.02%
- viability, T/C [30]: 3.01%

SMILES: Nc1ncn(C2CC(O)C(CO)S2)c(=O)n1 (stereo not given) + Cc1ccccc1N=Nc1ccc(NC(=O)c2ccnn2C)c(C)c1
- IC50 (second compound 0.1 µM): > 300 nM
- IC50 (second compound 0.316 µM): > 300 nM
- IC50 (second compound 1 µM): > 300 nM
- IC50 (second compound 3.16 µM): > 300 nM
- IC50 (second compound 10 µM): > 300 nM
- viability, T/C (second compound 0.1 µM, first compound 0.000949 µM): 91.9%
- viability, T/C (second compound 0.1 µM, first compound 0.003 µM): 103%
- viability, T/C [31]: 87.7%
- viability, T/C [32]: 108%
- viability, T/C [33]: 109%
- viability, T/C [34]: 111%
- viability, T/C (second compound 0.316 µM, first compound 0.000949 µM): 99.1%
- viability, T/C (second compound 0.316 µM, first compound 0.003 µM): 114%
- viability, T/C [35]: 96.3%
- viability, T/C [36]: 107%
- viability, T/C [37]: 105%
- viability, T/C [38]: 84.7%
- viability, T/C (second compound 1 µM, first compound 0.000949 µM): 110%
- viability, T/C (second compound 1 µM, first compound 0.003 µM): 114%
- viability, T/C [39]: 95%
- viability, T/C [40]: 114%
- viability, T/C [41]: 116%
- viability, T/C [42]: 101%
- viability, T/C (second compound 3.16 µM, first compound 0.000949 µM): 101%
- viability, T/C (second compound 3.16 µM, first compound 0.003 µM): 108%
- viability, T/C [43]: 107%
- viability, T/C [44]: 107%
- viability, T/C [45]: 109%
- viability, T/C [46]: 107%
- viability, T/C (second compound 10 µM, first compound 0.000949 µM): 104%
- viability, T/C (second compound 10 µM, first compound 0.003 µM): 99.3%
- viability, T/C [47]: 107%
- viability, T/C [48]: 113%
- viability, T/C [49]: 94.8%
- viability, T/C [50]: 99.3%

— PubChem BioAssay AID1918993 (Molecular Pharmacology Branch, DTP, NCI, 2023)
